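How tested: cells in 96-well plates exposed to compound for 48 hours at five concentrations. GI50 marks 50% less growth.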 Active and inactive are the calls of the source. No stated cut-off is given here; in the data, active = GI50 up to about 1.1 µM and inactive = higher.
Key:
Experiment in all cases: growth of human tumour cells (NCI), 48 h
[1] = test system: CCRF-CEM
[2] = test system: HCT-116
[3] = test system: IGROV-1
[4] = test system: KM12
[5] = test system: Malme-3M
[6] = test system: NCI-H460
[7] = test system: OVCAR-5
[8] = test system: OVCAR-8
[9] = test system: SF-295
[10] = test system: SK-MEL-2
[11] = test system: SK-MEL-5
[12] = test system: SNB-75
[13] = test system: SR
[14] = test system: UACC-257
[15] = test system: UO-31
[16] = test system: HL-60
[17] = test system: SNB-19

| SMILES | GI50 [1] | GI50 [2] | GI50 [3] | GI50 [4] | GI50 [5] | GI50 [6] | GI50 [7] | GI50 [8] | GI50 [9] | GI50 [10] | GI50 [11] | GI50 [12] | GI50 [13] | GI50 [14] | GI50 [15] | GI50 [16] | GI50 [17] |
| --- | --- | --- | --- | --- | --- | --- | --- | --- | --- | --- | --- | --- | --- | --- | --- | --- | --- |
| CN1C(=O)CN2C(Cl)(Cl)C2(c2ccccc2F)c2cc([N+](=O)[O-])ccc21 (centres undefined) | 29 µM (inactive) | 31.7 µM (inactive) | 63.8 µM (inactive) | 38.7 µM (inactive) | 18.4 µM (inactive) | 33.2 µM (inactive) | > 100 µM (inactive) | > 100 µM (inactive) | 80.4 µM (inactive) | 38.2 µM (inactive) | 26.8 µM (inactive) | 17.5 µM (inactive) | 33 µM (inactive) | 64.4 µM (inactive) | 42.7 µM (inactive) |  |  |
| O=[N+]([O-])c1ccc(C2SCc3nc4ccccc4n32)cc1 (centres undefined) | 65.9 µM (inactive) |  | 19.8 µM (inactive) | 73.3 µM (inactive) | 40.1 µM (inactive) | > 100 µM (inactive) | 17.6 µM (inactive) | > 100 µM (inactive) | 32.6 µM (inactive) | 60.1 µM (inactive) | 17.4 µM (inactive) |  | 53.6 µM (inactive) | 42.4 µM (inactive) | 24.8 µM (inactive) | 43.9 µM (inactive) | > 100 µM (inactive) |
| COc1ccc(OC)c2c1CC(C(=O)O)(C(=O)O)CC2=O |  | > 100 µM (inactive) | > 100 µM (inactive) | > 100 µM (inactive) | > 100 µM (inactive) |  | > 100 µM (inactive) |  |  | > 100 µM (inactive) | > 100 µM (inactive) | > 100 µM (inactive) |  |  | > 100 µM (inactive) | > 100 µM (inactive) | > 100 µM (inactive) |
| CC(C)N(C(=O)C12C3C4C1C1C4(C#N)C3C12C#N)C(C)C (centres undefined) | > 100 µM (inactive) |  | > 100 µM (inactive) |  | > 100 µM (inactive) | > 100 µM (inactive) | > 100 µM (inactive) | > 100 µM (inactive) | > 100 µM (inactive) |  | > 100 µM (inactive) |  |  | > 100 µM (inactive) | > 100 µM (inactive) |  | > 100 µM (inactive) |
| CC(=O)N/C(=C\c1ccccc1/C=C(\NC(C)=O)c1nc2cc(C)c(C)cc2[nH]1)c1nc2cc(C)c(C)cc2[nH]1 | 26.7 µM (inactive) | 5.48 µM (inactive) | 26.5 µM (inactive) | 11.8 µM (inactive) | 21.7 µM (inactive) | 26.8 µM (inactive) | 36.8 µM (inactive) | 19.2 µM (inactive) |  | 22.1 µM (inactive) | 17.1 µM (inactive) | 13.7 µM (inactive) | 0.689 µM (active) |  | 3.22 µM (inactive) |  | 6.81 µM (inactive) |
| C=CCC12CC(=O)CCC1CC(=O)C2 (centres undefined) | > 100 µM (inactive) | > 100 µM (inactive) | > 100 µM (inactive) | > 100 µM (inactive) | > 100 µM (inactive) | > 100 µM (inactive) |  | > 100 µM (inactive) |  | > 100 µM (inactive) | > 100 µM (inactive) | > 100 µM (inactive) | > 100 µM (inactive) | > 100 µM (inactive) | > 100 µM (inactive) | > 100 µM (inactive) | > 100 µM (inactive) |
| CCOC(=O)C1=C(C)N(NC(=O)OC)C2(N)N(NC(=O)OC)C(C)=C(C(=O)OCC)C12C#N (centres undefined) |  | > 100 µM (inactive) | > 100 µM (inactive) | > 100 µM (inactive) | > 100 µM (inactive) | > 100 µM (inactive) | > 100 µM (inactive) | > 100 µM (inactive) | > 100 µM (inactive) | > 100 µM (inactive) | > 100 µM (inactive) | > 100 µM (inactive) | > 100 µM (inactive) | > 100 µM (inactive) | > 100 µM (inactive) | > 100 µM (inactive) | > 100 µM (inactive) |
| c1ccc(/N=c2\snc3scc(-c4ccccc4)n23)cc1 | 43.8 µM (inactive) |  | 41.8 µM (inactive) | 36.5 µM (inactive) | 31.6 µM (inactive) |  | > 100 µM (inactive) | 48.6 µM (inactive) | 37.5 µM (inactive) | 34.8 µM (inactive) | 24.5 µM (inactive) | > 100 µM (inactive) |  | 32.5 µM (inactive) | 27.6 µM (inactive) | 40.6 µM (inactive) | 39.2 µM (inactive) |
| O=C(c1ccccc1)c1ccc2cccc(OC3OC(CO)C(O)C(O)C3O)c2n1 (centres undefined) |  | > 100 µM (inactive) | > 100 µM (inactive) | > 100 µM (inactive) | > 100 µM (inactive) | 74.6 µM (inactive) | > 100 µM (inactive) | 73.6 µM (inactive) | 51.5 µM (inactive) | > 100 µM (inactive) | > 100 µM (inactive) | 68.4 µM (inactive) | > 100 µM (inactive) | 54.7 µM (inactive) | > 100 µM (inactive) |  | > 100 µM (inactive) |
| COc1ccc(C2S/C(=C\c3ccc(O)cc3)C(=O)N2NC(=O)Cc2ccccc2)cc1 (centres undefined) | > 100 µM (inactive) | > 100 µM (inactive) | > 100 µM (inactive) | > 100 µM (inactive) | > 100 µM (inactive) | > 100 µM (inactive) | > 100 µM (inactive) | > 100 µM (inactive) | > 100 µM (inactive) | > 100 µM (inactive) | > 100 µM (inactive) | 90.8 µM (inactive) | > 100 µM (inactive) | > 100 µM (inactive) | > 100 µM (inactive) | > 100 µM (inactive) |  |
| O=C(O)CNS(=O)(=O)c1ccc(NC(=O)c2ccc([N+](=O)[O-])cc2)cc1 | > 100 µM (inactive) |  | > 100 µM (inactive) | > 100 µM (inactive) | > 100 µM (inactive) | > 100 µM (inactive) | > 100 µM (inactive) | > 100 µM (inactive) | > 100 µM (inactive) | > 100 µM (inactive) | > 100 µM (inactive) | > 100 µM (inactive) |  | > 100 µM (inactive) | > 100 µM (inactive) | > 100 µM (inactive) | > 100 µM (inactive) |
| C[C@@H]1CC2(C[C@@H](C)C3[C@@H](CC4(C)CCCC5C6=CC(O)(CC[C@]34C)OC6=CC(=O)OC5(C)C)O2)OC1=O (some centres undefined) |  | > 100 µM (inactive) | > 100 µM (inactive) | > 100 µM (inactive) | > 100 µM (inactive) |  | > 100 µM (inactive) |  |  | > 100 µM (inactive) | > 100 µM (inactive) | 96.2 µM (inactive) | > 100 µM (inactive) |  | > 100 µM (inactive) | > 100 µM (inactive) | > 100 µM (inactive) |
| COc1cc(C2c3cc4c(cc3[C@@H](Nc3ccc(C(=O)O)cc3)C3COC(=O)[C@H]23)OCO4)cc(OC)c1O (some centres undefined) | 2.78 µM (inactive) | 19.4 µM (inactive) | 17.8 µM (inactive) | 21.6 µM (inactive) | 13.7 µM (inactive) | 2.39 µM (inactive) |  | 14.6 µM (inactive) | 14.1 µM (inactive) | 30.4 µM (inactive) | 12.1 µM (inactive) | 13.2 µM (inactive) |  | 27.2 µM (inactive) | 22.5 µM (inactive) | 2.49 µM (inactive) | 6.14 µM (inactive) |
